Read-outs that look alike come from different tables or passages of the source.
Key:
[1] = test system: Key Broadleaf Weed and Crop Species; experiment: Post-emergent Test II herbicidal activity (Table 5); assay type: in vivo; settings: for Visual Growth Reduction (%) 14 Days After Application, ABUTH / Visual Growth Reduction (%) 14 Days After Application, AMARE / Visual Growth Reduction (%) 14 Days After Application, BRSNN / Visual Growth Reduction (%) 14 Days After Application, CHEAL / Visual Growth Reduction (%) 14 Days After Application, EPHHL / Visual Growth Reduction (%) 14 Days After Application, HELAN / Visual Growth Reduction (%) 14 Days After Application, VIOTR: post-emergent; for pest or weed control at 70 g/ha / pest or weed control at 140 g/ha: post-emergence, 336 h, 14 days after application; for pest or weed control at 70 g/ha: application rate 70 g ai/ha; for pest or weed control at 140 g/ha: application rate 140 g ai/ha
Method in brief: (§1)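 Foliar application at 187 L/ha to greenhouse-grown seedlings (first or second true leaf); subirrigation thereafter. Visual 0–100% injury at 14 d relative to untreated plants.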

[2] = test system: Key Grass and Sedge Weeds as well as Grass Crops; experiment: Post-emergent Test II herbicidal activity (Table 6); assay type: in vivo; settings: for Visual Growth Reduction (%) 14 Days After Application, SORVU: SORVU: sorghum (Sorghum vulgare); for Visual Growth Reduction (%) 14 Days After Application, TRZSS: TRZSS (wheat); for pest or weed control at 70 g/ha / pest or weed control at 140 g/ha: post-emergence, 336 h; for pest or weed control at 70 g/ha: 70 g ai/ha; for pest or weed control at 140 g/ha: 140 g ai/ha
Method in brief: as §1

[3] = ABUTH: velvetleaf (Abutilon theophrasti), read-out: Visual Growth Reduction (%) 14 Days After Application, ABUTH
[4] = AMARE: redroot pigweed (Amaranthus retroflexus), read-out: Visual Growth Reduction (%) 14 Days After Application, AMARE
[5] = BRSNN: oilseed-rape, canola (Brassica napus), read-out: Visual Growth Reduction (%) 14 Days After Application, BRSNN
[6] = CHEAL: lambsquarters (Chenopodium album), read-out: Visual Growth Reduction (%) 14 Days After Application, CHEAL
[7] = EPHHL: wild poinsettia (Euphorbia heterophylla), read-out: Visual Growth Reduction (%) 14 Days After Application, EPHHL
[8] = HELAN: sunflower (Helianthus annuus), read-out: Visual Growth Reduction (%) 14 Days After Application, HELAN
[9] = VIOTR: wild pansy (Viola tricolor), read-out: Visual Growth Reduction (%) 14 Days After Application, VIOTR
[10] = CYPES: yellow nutsedge (Cyperus esculentus), read-out: Visual Growth Reduction (%) 14 Days After Application, CYPES
[11] = DIGSA: crabgrass (Digitaria sanguinalis), read-out: Visual Growth Reduction (%) 14 Days After Application, DIGSA
[12] = ECHCG: barnyardgrass (Echinochloa crus-galli), read-out: Visual Growth Reduction (%) 14 Days After Application, ECHCG
[13] = ORYSA: rice (Oryza sativa), crop, read-out: Visual Growth Reduction (%) 14 Days After Application, ORYSA
[14] = SETFA: giant foxtail (Setaria faberi), read-out: Visual Growth Reduction (%) 14 Days After Application, SETFA
[15] = SORVU: grain sorghum (Sorghum vulgare), read-out: Visual Growth Reduction (%) 14 Days After Application, SORVU
[16] = TRZSS (wheat, Triticum aestivum), crop, read-out: Visual Growth Reduction (%) 14 Days After Application, TRZSS
[17] = ZEAMX: maize, corn (Zea mays), crop, read-out: Visual Growth Reduction (%) 14 Days After Application, ZEAMX

Structure (SMILES): COC(=O)c1nc(-c2ccc(C(F)(F)F)c(F)c2)c(Cl)c(N)c1Cl [Compound 58]
- Visual Growth Reduction (%) 14 Days After Application, ABUTH ([1]; ABUTH: velvetleaf (Abutilon theophrasti), 70 g ai/ha): B (85-94)
- Visual Growth Reduction (%) 14 Days After Application, ABUTH ([1]; ABUTH: velvetleaf (Abutilon theophrasti), 140 g ai/ha): A (95-100)
- Visual Growth Reduction (%) 14 Days After Application, AMARE ([1]; AMARE: redroot pigweed (Amaranthus retroflexus), 70 g ai/ha): B (85-94)
- Visual Growth Reduction (%) 14 Days After Application, AMARE ([1]; AMARE: redroot pigweed (Amaranthus retroflexus), 140 g ai/ha): A (95-100)
- Visual Growth Reduction (%) 14 Days After Application, BRSNN ([1]; BRSNN: oilseed-rape, canola (Brassica napus), 70 g ai/ha): D (60-74)
- Visual Growth Reduction (%) 14 Days After Application, BRSNN ([1]; BRSNN: oilseed-rape, canola (Brassica napus), 140 g ai/ha): C (75-84)
- Visual Growth Reduction (%) 14 Days After Application, CHEAL ([1]; CHEAL: lambsquarters (Chenopodium album), 70 g ai/ha): A (95-100)
- Visual Growth Reduction (%) 14 Days After Application, CHEAL ([1]; CHEAL: lambsquarters (Chenopodium album), 140 g ai/ha): A (95-100)
- Visual Growth Reduction (%) 14 Days After Application, EPHHL ([1]; EPHHL: wild poinsettia (Euphorbia heterophylla), 70 g ai/ha): G (0-29)
- Visual Growth Reduction (%) 14 Days After Application, EPHHL ([1]; EPHHL: wild poinsettia (Euphorbia heterophylla), 140 g ai/ha): G (0-29)
- Visual Growth Reduction (%) 14 Days After Application, HELAN ([1]; HELAN: sunflower (Helianthus annuus), 70 g ai/ha): A (95-100)
- Visual Growth Reduction (%) 14 Days After Application, HELAN ([1]; HELAN: sunflower (Helianthus annuus), 140 g ai/ha): A (95-100)
- Visual Growth Reduction (%) 14 Days After Application, VIOTR ([1]; VIOTR: wild pansy (Viola tricolor), 70 g ai/ha): G (0-29)
- Visual Growth Reduction (%) 14 Days After Application, VIOTR ([1]; VIOTR: wild pansy (Viola tricolor), 140 g ai/ha): G (0-29)
- Visual Growth Reduction (%) 14 Days After Application, CYPES ([2]; CYPES: yellow nutsedge (Cyperus esculentus), application rate 70 g ai/ha): A (95-100)
- Visual Growth Reduction (%) 14 Days After Application, CYPES ([2]; CYPES: yellow nutsedge (Cyperus esculentus), application rate 140 g ai/ha): A (95-100)
- Visual Growth Reduction (%) 14 Days After Application, DIGSA ([2]; DIGSA: crabgrass (Digitaria sanguinalis), application rate 70 g ai/ha): D (60-74)
- Visual Growth Reduction (%) 14 Days After Application, DIGSA ([2]; DIGSA: crabgrass (Digitaria sanguinalis), application rate 140 g ai/ha): C (75-84)
- Visual Growth Reduction (%) 14 Days After Application, ECHCG ([2]; ECHCG: barnyardgrass (Echinochloa crus-galli), application rate 70 g ai/ha): G (0-29)
- Visual Growth Reduction (%) 14 Days After Application, ECHCG ([2]; ECHCG: barnyardgrass (Echinochloa crus-galli), application rate 140 g ai/ha): C (75-84)
- Visual Growth Reduction (%) 14 Days After Application, ORYSA ([2]; ORYSA: rice (Oryza sativa), application rate 70 g ai/ha): G (0-29)
- Visual Growth Reduction (%) 14 Days After Application, ORYSA ([2]; ORYSA: rice (Oryza sativa), application rate 140 g ai/ha): G (0-29)
- Visual Growth Reduction (%) 14 Days After Application, SORVU ([2]; application rate 70 g ai/ha): E (45-59)
- Visual Growth Reduction (%) 14 Days After Application, SORVU ([2]; application rate 140 g ai/ha): E (45-59)
- Visual Growth Reduction (%) 14 Days After Application, TRZSS ([2]; application rate 70 g ai/ha): E (45-59)
- Visual Growth Reduction (%) 14 Days After Application, TRZSS ([2]; application rate 140 g ai/ha): D (60-74)
- Visual Growth Reduction (%) 14 Days After Application, ZEAMX ([2]; ZEAMX: maize, corn (Zea mays), application rate 70 g ai/ha): D (60-74)
- Visual Growth Reduction (%) 14 Days After Application, ZEAMX ([2]; ZEAMX: maize, corn (Zea mays), application rate 140 g ai/ha): D (60-74)

Structure (SMILES): COC(=O)c1nc(-c2ccc(OC(F)F)cc2)c(F)c(N)c1Cl [Compound 85]
- pest or weed control at 70 g/ha [1, 3]: 95 to 100%
- pest or weed control at 140 g/ha [1, 3]: 95 to 100%
- pest or weed control at 70 g/ha [1, 4]: 95 to 100%
- pest or weed control at 140 g/ha [1, 4]: 95 to 100%
- pest or weed control at 70 g/ha [1, 5]: 45 to 59%
- pest or weed control at 140 g/ha [1, 5]: 60 to 74%
- pest or weed control at 70 g/ha [1, 6]: 85 to 94%
- pest or weed control at 140 g/ha [1, 6]: 95 to 100%
- pest or weed control at 70 g/ha [1, 7]: 95 to 100%
- pest or weed control at 140 g/ha [1, 7]: 95 to 100%
- pest or weed control at 70 g/ha [1, 8]: 85 to 94%
- pest or weed control at 140 g/ha [1, 8]: 95 to 100%
- pest or weed control at 70 g/ha [1, 9]: 0 to 29%
- pest or weed control at 140 g/ha [1, 9]: 0 to 29%
- pest or weed control at 70 g/ha [2, 10]: 85 to 94%
- pest or weed control at 140 g/ha [2, 10]: 85 to 94%
- pest or weed control at 70 g/ha [2, 11]: 30 to 44%
- pest or weed control at 140 g/ha [2, 11]: 30 to 44%
- pest or weed control at 70 g/ha [2, 12]: 95 to 100%
- pest or weed control at 140 g/ha [2, 12]: 95 to 100%
- pest or weed control at 70 g/ha [2, 13]: 0 to 29%
- pest or weed control at 140 g/ha [2, 13]: 0 to 29%
- pest or weed control at 70 g/ha [2, 14]: 45 to 59%
- pest or weed control at 140 g/ha [2, 14]: 75 to 84%
- pest or weed control at 70 g/ha [2, 15]: 75 to 84%
- pest or weed control at 140 g/ha [2, 15]: 85 to 94%
- pest or weed control at 70 g/ha [2, 16]: 30 to 44%
- pest or weed control at 140 g/ha [2, 16]: 30 to 44%
- pest or weed control at 70 g/ha [2, 17]: 75 to 84%
- pest or weed control at 140 g/ha [2, 17]: 75 to 84%
